Several values for one entry are separate records, joined by “and”; a condition that tells them apart may be missing. Equal values may be shown once.
Legend:
Rattus norvegicus [1] = assay: The behavior disruption data as percent change in response from drug versus saline at dose 4 mg/kg, expressed as B/P (burst/premature).; assay type: functional
Rattus norvegicus [2] = assay: The behavior disruption data as percent change in response from drug versus saline at dose 2mg/Kg, expressed as E (efficient); assay type: functional
Rattus norvegicus [3] = assay: The behavior disruption data as percent change in response from drug versus saline at dose 0.5 mg/kg, expressed as B/P (burst/premature).; assay type: functional
[4] = Hill coefficient of the compound
Rattus norvegicus [5] = assay: The behavior disruption data as percent change in response from drug versus saline at dose 4mg/Kg, expressed as E (efficient); assay type: functional
Rattus norvegicus [6] = assay: The behavior disruption data as percent change in response from drug versus saline at dose 0.5 mg/Kg, expressed as E (efficient); assay type: functional
Rattus norvegicus [7] = assay: The behavior disruption data as percent change in response from drug versus saline at dose 2mg/kg, expressed as B/P (burst/premature).; assay type: functional
[8] = Ability to displace [3H]LSD binding to Lysergic acid diethylamide receptor site using 1 uM 5-HT as masking ligand; set-up: species or system Cavia porcellus
Rattus norvegicus [9] = assay: The behavior disruption data as percent change in response from drug versus saline at dose 1 mg/kg, expressed as B/P (burst/premature).; assay type: functional
[10] = target: Serotonin (5-HT) receptor; assay: Ability to displace [3H]5-HT binding to 5-hydroxytryptamine receptor site using 1 uM LSD as masking ligand; assay type: protein assay, Cavia porcellus
Rattus norvegicus [11] = assay: The behavior disruption data as percent change in response from drug versus saline at dose 4mg/Kg, expressed as L (Late).; assay type: functional
Rattus norvegicus [12] = assay: The behavior disruption data as percent change in response from drug versus saline at dose 1mg/Kg, expressed as E (efficient); assay type: functional
Rattus norvegicus [13] = assay: The behavior disruption data as percent change in response from drug versus saline at dose 2mg/Kg, expressed as L (Late).; assay type: functional
Rattus norvegicus [14] = assay: The behavior disruption data as percent change in response from drug versus saline at dose 1mg/Kg, expressed as L (Late).; assay type: functional
Rattus norvegicus [15] = assay: The behavior disruption data as percent change in response from drug versus saline at dose 0.5 mg/Kg, expressed as L (Late).; assay type: functional
Rattus norvegicus [16] = assay: The behavior disruption data as percent change in response from drug versus saline at dose 0.25 mg/kg, expressed as B/P (burst/premature).; assay type: functional
Rattus norvegicus [17] = assay: The behavior disruption data as percent change in response from drug versus saline at dose 0.25mg/Kg, expressed as E (efficient); assay type: functional
Rattus norvegicus [18] = assay: The behavior disruption data as percent change in response from drug versus saline at dose 0.25mg/Kg, expressed as L (Late).; assay type: functional
Rattus norvegicus [19] = assay: The behavior disruption data as percent change in response from drug versus saline at dose 5mg/Kg, expressed as E (efficient); assay type: functional
Rattus norvegicus [20] = assay: The behavior disruption data as percent change in response from drug versus saline at dose 5mg/Kg, expressed as L (Late).; assay type: functional
Rattus norvegicus [21] = assay: The behavior disruption data as percent change in response from drug versus saline at dose 5 mg/kg, expressed as B/P (burst/premature).; assay type: functional
Rattus norvegicus [22] = assay: The behavior disruption data as percent change in response from drug versus saline at dose 10mg/Kg, expressed as E (efficient); assay type: functional
Rattus norvegicus [23] = assay: The behavior disruption data as percent change in response from drug versus saline at dose 10 mg/kg, expressed as B/P (burst/premature).; assay type: functional
Rattus norvegicus [24] = assay: The behavior disruption data as percent change in response from drug versus saline at dose 10mg/Kg, expressed as L (Late).; assay type: functional
[25] = target: Serotonin (5-HT) receptor; assay: Ability to displace [3H]5-HT binding from 5-hydroxytryptamine receptor site using 1 uM LSD as masking ligand; assay type: protein assay, Cavia porcellus
Rattus norvegicus [26] = assay: The behavior disruption data as percent change in response from drug versus saline at dose 15mg/Kg, expressed as E (efficient); assay type: functional
Rattus norvegicus [27] = assay: The behavior disruption data as percent change in response from drug versus saline at dose 15 mg/kg, expressed as B/P (burst/premature).; assay type: functional
Rattus norvegicus [28] = assay: The behavior disruption data as percent change in response from drug versus saline at dose 15mg/Kg, expressed as L (Late).; assay type: functional
Rattus norvegicus [29] = assay: The behavior disruption data as percent change in response from drug versus saline at dose 2.5 mg/kg, expressed as B/P (burst/premature).; assay type: functional
Rattus norvegicus [30] = assay: The behavior disruption data as percent change in response from drug versus saline at dose 1.25mg/Kg, expressed as E (efficient); assay type: functional
Rattus norvegicus [31] = assay: The behavior disruption data as percent change in response from drug versus saline at dose 2.5mg/Kg, expressed as E (efficient); assay type: functional
Rattus norvegicus [32] = assay: The behavior disruption data as percent change in response from drug versus saline at dose 1.25mg/Kg, expressed as L (Late).; assay type: functional
Rattus norvegicus [33] = assay: The behavior disruption data as percent change in response from drug versus saline at dose 2.5mg/Kg, expressed as L (Late).; assay type: functional
Rattus norvegicus [34] = assay: The behavior disruption data as percent change in response from drug versus saline at dose 1.25 mg/kg, expressed as B/P (burst/premature).; assay type: functional
Rattus norvegicus [35] = assay: The behavior disruption data as percent change in response from drug versus saline at dose 8mg/Kg, expressed as E (efficient); assay type: functional
Rattus norvegicus [36] = assay: The behavior disruption data as percent change in response from drug versus saline at dose 8 mg/kg, expressed as B/P (burst/premature).; assay type: functional
Rattus norvegicus [37] = assay: The behavior disruption data was measured as percent change in response from drug versus saline at dose 2 mg/kg, activity expressed as L (Late).; assay type: functional
Rattus norvegicus [38] = assay: The behavior disruption data as percent change in response from drug versus saline at dose 8mg/Kg, expressed as L (Late).; assay type: functional

CSc1ccc2c(CCN(C)C)c[nH]c2c1
Change in response (Rattus norvegicus [1]): 34% | Change in response (Rattus norvegicus [2]): 30% | Change in response (Rattus norvegicus [3]): 4% | Hill coefficient [4]: 0.97 and 0.57 | Change in response (Rattus norvegicus [5]): 48% | Change in response (Rattus norvegicus [6]): 8% | Change in response (Rattus norvegicus [7]): 20% | IC50 [8]: 7.59e-6 M l-1 | Change in response (Rattus norvegicus [9]): 8% | IC50 [10]: 0.0000408 M l-1 | Change in response (Rattus norvegicus [11]): 14% | Change in response (Rattus norvegicus [12]): 13% | Change in response (Rattus norvegicus [13]): 19% | Change in response (Rattus norvegicus [14]): 4% | Change in response (Rattus norvegicus [15]): 4%

CN(C)CCc1c[nH]c2ccc3c(c12)OCO3
Change in response (Rattus norvegicus [2]): 31% | Change in response (Rattus norvegicus [3]): 0% | Change in response (Rattus norvegicus [6]): 5% | Change in response (Rattus norvegicus [16]): 3% | Change in response (Rattus norvegicus [7]): 11% | Change in response (Rattus norvegicus [9]): 5% | Change in response (Rattus norvegicus [17]): 3% | Change in response (Rattus norvegicus [12]): 10% | Change in response (Rattus norvegicus [13]): 20% | Change in response (Rattus norvegicus [14]): 5% | Change in response (Rattus norvegicus [18]): 5% | Change in response (Rattus norvegicus [15]): 5%

CSc1cccc2[nH]cc(CCN(C(C)C)C(C)C)c12
Hill coefficient [4]: 0.7 | Change in response (Rattus norvegicus [19]): 5% | Change in response (Rattus norvegicus [20]): 4% | Change in response (Rattus norvegicus [21]): 1% | Change in response (Rattus norvegicus [22]): 32% | Change in response (Rattus norvegicus [23]): 23% | Change in response (Rattus norvegicus [24]): 9%

CSc1ccc2[nH]cc(CCN(C)C)c2c1
IC50 [25]: 1e-6 M l-1 | Change in response (Rattus norvegicus [3]): 13% | Hill coefficient [4]: 0.91 and 0.995 | Change in response (Rattus norvegicus [6]): 26% | IC50 [8]: 1.44e-7 M l-1 | Change in response (Rattus norvegicus [9]): 16% | Change in response (Rattus norvegicus [12]): 65% | Change in response (Rattus norvegicus [14]): 49% | Change in response (Rattus norvegicus [15]): 7%

COc1cccc2[nH]cc(CCN(C)C)c12
Change in response (Rattus norvegicus [2]): 27% | Change in response (Rattus norvegicus [3]): 0% | Change in response (Rattus norvegicus [6]): 2% | Change in response (Rattus norvegicus [7]): 10% | Change in response (Rattus norvegicus [9]): 9% | Change in response (Rattus norvegicus [12]): 25% | Change in response (Rattus norvegicus [13]): 7% | Change in response (Rattus norvegicus [14]): 6% | Change in response (Rattus norvegicus [15]): 2%

CN(C)CCc1c[nH]c2cc3c(cc12)OCO3
Hill coefficient [4]: 0.95 and 1.01 | Change in response (Rattus norvegicus [19]): 11% | Change in response (Rattus norvegicus [20]): 2% | IC50 [8]: 1.78e-6 M l-1 | Change in response (Rattus norvegicus [21]): 9% | Change in response (Rattus norvegicus [22]): 26% | IC50 [10]: 0.0000407 M l-1 | Change in response (Rattus norvegicus [26]): 41% | Change in response (Rattus norvegicus [23]): 19% | Change in response (Rattus norvegicus [27]): 22% | Change in response (Rattus norvegicus [24]): 9% | Change in response (Rattus norvegicus [28]): 19%

COc1ccc2c(CCN(C)C)c[nH]c2c1
Change in response (Rattus norvegicus [29]): 26% | Change in response (Rattus norvegicus [19]): 50% | Change in response (Rattus norvegicus [20]): 21% | Change in response (Rattus norvegicus [30]): 21% | Change in response (Rattus norvegicus [31]): 34% | Change in response (Rattus norvegicus [21]): 29% | Change in response (Rattus norvegicus [32]): 5% | Change in response (Rattus norvegicus [33]): 8% | Change in response (Rattus norvegicus [34]): 25%

CC(C)N(CCc1c[nH]c2cc3c(cc12)OCO3)C(C)C
IC50 [25]: 0.000933 M l-1 | Hill coefficient [4]: 0.642 | Change in response (Rattus norvegicus [29]): 0% | Change in response (Rattus norvegicus [19]): 4% | Change in response (Rattus norvegicus [20]): 2% | IC50 [8]: 0.00001 M l-1 | Change in response (Rattus norvegicus [30]): 0% | Change in response (Rattus norvegicus [31]): 2% | Change in response (Rattus norvegicus [21]): 2% | Change in response (Rattus norvegicus [22]): 45% | Change in response (Rattus norvegicus [23]): 29% | Change in response (Rattus norvegicus [24]): 16% | Change in response (Rattus norvegicus [32]): 1% | Change in response (Rattus norvegicus [33]): 2% | Change in response (Rattus norvegicus [34]): 1%

CC(C)N(CCc1c[nH]c2ccc3c(c12)OCO3)C(C)C
Hill coefficient [4]: 0.343 | Change in response (Rattus norvegicus [29]): 38% | IC50 [8]: 2.88e-6 M l-1 | Change in response (Rattus norvegicus [30]): 28% | Change in response (Rattus norvegicus [31]): 49% | IC50 [10]: 2.24e-6 M l-1 | Change in response (Rattus norvegicus [32]): 74% | Change in response (Rattus norvegicus [33]): 11% | Change in response (Rattus norvegicus [34]): 24%

COc1ccc2[nH]cc(CCN(C)C)c2c1 [MEBUFOTENIN]
Change in response (Rattus norvegicus [2]): 26% | Change in response (Rattus norvegicus [7]): 19% | Change in response (Rattus norvegicus [9]): 6% | Change in response (Rattus norvegicus [12]): 11% | Change in response (Rattus norvegicus [13]): 9% | Change in response (Rattus norvegicus [14]): 5%

CSc1cccc2[nH]cc(CCN(C)C)c12
Change in response (Rattus norvegicus [1]): 20% | Change in response (Rattus norvegicus [2]): 11% | Change in response (Rattus norvegicus [35]): 52% | Hill coefficient [4]: 0.75 and 1.01 | Change in response (Rattus norvegicus [5]): 27% | Change in response (Rattus norvegicus [7]): 8% | IC50 [8]: 0.0000125 M l-1 | Change in response (Rattus norvegicus [9]): 0% | IC50 [10]: 0.000151 M l-1 | Change in response (Rattus norvegicus [36]): 36% | Change in response (Rattus norvegicus [11]): 6% | Change in response (Rattus norvegicus [12]): 1% | Change in response (Rattus norvegicus [37]): 3% | Change in response (Rattus norvegicus [14]): 1% | Change in response (Rattus norvegicus [38]): 15%
